Results: ChEMBL document CHEMBL1921755, “The synthesis of xanthones, xanthenediones, and spirobenzofurans: their antibacterial and antifungal activity” (2011)
Values after ≈ are worked out from the molar mass of the structure shown.

Columns and labels:
Format in all cases: functional
Bacillus cereus = assay: Antibacterial activity against Bacillus cereus ATCC 11778
Moraxella catarrhalis = assay: Antibacterial activity against Moraxella catarrhalis […]
Staphylococcus aureus = assay: Antibacterial activity against Staphylococcus aureus ATCC 2587
Candida albicans [1] = assay: Antifungal activity against Candida albicans ATCC 10231
Cryptococcus neoformans = assay: Antifungal activity against Cryptococcus neoformans ATCC 90112
Escherichia coli = assay: Antibacterial activity against Escherichia coli ATCC 8739
Nakaseomyces glabratus = assay: Antifungal activity against Candida glabrata
Candida albicans [2] = assay: Antifungal activity against Candida albicans
Bacillus subtilis = assay: Antibacterial activity against Bacillus subtilis

SMILES | MIC (Bacillus cereus) [µg/mL] | MIC (Moraxella catarrhalis) [µg/mL] | MIC (Staphylococcus aureus) [µg/mL] | MIC (Candida albicans [1]) [µg/mL] | MIC (Cryptococcus neoformans) [µg/mL] | MIC (Escherichia coli) [µg/mL] | MIC (Nakaseomyces glabratus) [µM] | MIC (Candida albicans [2]) [µg/mL] | MIC (Bacillus subtilis) [µM]
O=C(O)c1cn(C2CC2)c2cc(N3CCNCC3)c(F)cc2c1=O [CIPROFLOXACIN] | 0.08 (≈ 0.241 µM) | 1.25 (≈ 3.77 µM) | 1.25 (≈ 3.77 µM) | – | – | – | – | – | –
O=c1c2cc(O)ccc2oc2ccc(Br)cc12 | 31.3 (≈ 108 µM) | > 250 | 250 (≈ 859 µM) | 31.3 (≈ 108 µM) | 11.7 (≈ 40.2 µM) | 125 (≈ 429 µM) | – | – | –
COC12Oc3ccccc3C(=O)C1=CC(=O)c1ccccc12 (centres undefined) | 19.5 (≈ 66.7 µM) | 78.1 (≈ 267 µM) | 78.1 (≈ 267 µM) | 78.1 (≈ 267 µM) | 19.5 (≈ 66.7 µM) | 156 (≈ 534 µM) | – | – | –
COC12C=CC(=O)C=C1C(=O)c1cc(Cl)ccc1O2 (centres undefined) | 156 (≈ 565 µM) | 156 (≈ 565 µM) | 156 (≈ 565 µM) | 156 (≈ 565 µM) | 7.8 (≈ 28.2 µM) | 312 (≈ 1130 µM) | – | – | –
COC1=CC2(Oc3ccc(Cl)cc3C2=O)C(OC)=CC1=O (centres undefined) | 156 (≈ 509 µM) | 312 (≈ 1020 µM) | 156 (≈ 509 µM) | 156 (≈ 509 µM) | 39 (≈ 127 µM) | 312 (≈ 1020 µM) | – | – | –
COc1cc2oc3ccc(Br)cc3c(=O)c2cc1O | 31.3 (≈ 97.5 µM) | 125 (≈ 389 µM) | 62.5 (≈ 195 µM) | 31.3 (≈ 97.5 µM) | 15.6 (≈ 48.6 µM) | 125 (≈ 389 µM) | – | – | –
COc1c(O)ccc2oc3ccccc3c(=O)c12 | 31.3 (≈ 129 µM) | 125 (≈ 516 µM) | 125 (≈ 516 µM) | 31.3 (≈ 129 µM) | 15.6 (≈ 64.4 µM) | 125 (≈ 516 µM) | – | – | –
COC1=CC2(OC)Oc3ccc(Br)cc3C(=O)C2=CC1=O (centres undefined) | 31.3 (≈ 89.1 µM) | 125 (≈ 356 µM) | 62.5 (≈ 178 µM) | 31.3 (≈ 89.1 µM) | 15.6 (≈ 44.4 µM) | 188 (≈ 534 µM) | – | – | –
COc1ccc2oc3ccccc3c(=O)c2c1 | 312 (≈ 1380 µM) | 625 (≈ 2760 µM) | 156 (≈ 690 µM) | 156 (≈ 690 µM) | 78.1 (≈ 345 µM) | 312 (≈ 1380 µM) | – | – | –
COc1cc2oc3ccccc3c(=O)c2cc1OC | 46.9 (≈ 183 µM) | 125 (≈ 488 µM) | 62.5 (≈ 244 µM) | 31.3 (≈ 122 µM) | 31.3 (≈ 122 µM) | 125 (≈ 488 µM) | – | – | –
COC12C=CC(=O)C=C1C(=O)c1cc(Br)ccc1O2 (centres undefined) | 31.3 (≈ 97.5 µM) | 125 (≈ 389 µM) | 62.5 (≈ 195 µM) | 7.8 (≈ 24.3 µM) | 15.6 (≈ 48.6 µM) | 62.5 (≈ 195 µM) | – | – | –
COc1ccc2oc3ccc(Cl)cc3c(=O)c2c1 | 625 (≈ 2400 µM) | 1250 (≈ 4800 µM) | 234 (≈ 899 µM) | 234 (≈ 899 µM) | 156 (≈ 599 µM) | 625 (≈ 2400 µM) | – | – | –
COC1=CC2(Oc3ccc(-c4ccccc4C=O)cc3C2=O)C(OC)=CC1=O (centres undefined) | 15.6 (≈ 41.4 µM) | 125 (≈ 332 µM) | 15.6 (≈ 41.4 µM) | 31.3 (≈ 83.2 µM) | 15.6 (≈ 41.4 µM) | 62.5 (≈ 166 µM) | – | – | –
COC12Oc3ccc(Cl)cc3C(=O)C1=CC(=O)c1ccccc12 (centres undefined) | 78.1 (≈ 239 µM) | 312 (≈ 956 µM) | 19.5 (≈ 59.7 µM) | 469 (≈ 1430 µM) | 29.2 (≈ 89.4 µM) | 469 (≈ 1430 µM) | – | – | –

Second part, the compound after the results:

MIC (Bacillus cereus) [µg/mL] | MIC (Moraxella catarrhalis) [µg/mL] | MIC (Staphylococcus aureus) [µg/mL] | MIC (Candida albicans [1]) [µg/mL] | MIC (Cryptococcus neoformans) [µg/mL] | MIC (Escherichia coli) [µg/mL] | MIC (Nakaseomyces glabratus) [µM] | MIC (Candida albicans [2]) [µg/mL] | MIC (Bacillus subtilis) [µM] | SMILES
39 (≈ 127 µM) | 156 (≈ 509 µM) | 39 (≈ 127 µM) | 20.8 (≈ 67.8 µM) | 15.6 (≈ 50.9 µM) | 156 (≈ 509 µM) | – | – | – | COC1=CC2(OC)Oc3ccc(Cl)cc3C(=O)C2=CC1=O (centres undefined)
– | – | – | – | – | – | 2.44 (≈ 0.884 µg/mL) | – | – | CC(C)=CCc1cccc2c(=O)c3c(O)cc4c(c3oc12)C=CC(C)(C)O4 [LAURENTIXANTHONE A]
– | – | – | – | – | – | – | 20 (≈ 56.7 µM) | – | COC1=CC(=O)C[C@@H](C)[C@]12Oc1c(Cl)c(OC)cc(OC)c1C2=O [GRISEOFULVIN]
– | – | – | – | – | – | – | – | 4.6 (≈ 1.43 µg/mL) | CC1(C)C=Cc2c(cc3oc4c(O)cccc4c(=O)c3c2O)O1
31.3 (≈ 89.1 µM) | 125 (≈ 356 µM) | 62.5 (≈ 178 µM) | 31.3 (≈ 89.1 µM) | 15.6 (≈ 44.4 µM) | 62.5 (≈ 178 µM) | – | – | – | COC1=CC2(Oc3ccc(Br)cc3C2=O)C(OC)=CC1=O (centres undefined)
46.9 (≈ 135 µM) | > 250 | 62.5 (≈ 179 µM) | 31.3 (≈ 89.9 µM) | 23.4 (≈ 67.2 µM) | 125 (≈ 359 µM) | – | – | – | COC1=CC2(Oc3ccc(-c4ccccc4)cc3C2=O)C(OC)=CC1=O (centres undefined)
312 (≈ 1070 µM) | 625 (≈ 2150 µM) | 117 (≈ 403 µM) | 156 (≈ 537 µM) | 78.1 (≈ 269 µM) | 312 (≈ 1070 µM) | – | – | – | COc1cc2oc3ccc(Cl)cc3c(=O)c2cc1OC
31.3 (≈ 129 µM) | 125 (≈ 516 µM) | 93.7 (≈ 387 µM) | 3.6 (≈ 14.9 µM) | 3.6 (≈ 14.9 µM) | 125 (≈ 516 µM) | – | – | – | COC12C=CC(=O)C=C1C(=O)c1ccccc1O2 (centres undefined)
